Measurements from ChEMBL document CHEMBL4265941, “Side effects of methotrexate therapy for rheumatoid arthritis: A systematic review” (Eur J Med Chem, 2018).

Key:
Type in all cases: ADME, organism-based
[1] = Tmax in RA patient at 7.5 to 25 mg, po; conditions: human, in vivo
[2] = Tmax in RA patient at 7.5 to 25 mg, im; conditions: human, in vivo
[3] = Oral bioavailability in human; conditions: in vivo

Tmax [1]: 1.5 h
Tmax [2]: 1.3 h
bioavailability [3]: 50 to 80%
Structure (SMILES): CN(Cc1cnc2nc(N)nc(N)c2n1)c1ccc(C(=O)N[C@@H](CCC(=O)O)C(=O)O)cc1 [METHOTREXATE]
